The target in test [1] is T1, HCV NS3 helicase NS3h_1b(con1) (Hepatitis C virus genotype 1b, UniProt Q9WMX2).
T1 construct: truncated C-terminally His-tagged NS3 proteins lacking the N-terminal protease, called NS3h; His-tag (C); made in house
The test can be described thus: biochemical. The class given is biochemical, hepatitis C virus genotype 1b(con1). The method, boiled down:
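Molecular beacon helicase assay with His-tagged recombinant NS3 and a Cy5/IBRQ-labelled partially duplex DNA substrate (25 bp) or Tye665-labelled RNA substrate (19 bp). Reactions started with 1 mM ATP. Screening read fluorescence before and 30 min after ATP (ex 643/em 670 nm). For IC50, 5% v/v DMSO was present, initial velocities came from first-order decay fits, and a Hill equation was applied.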

For test [2], the system named is HCV RLuc subgenomic replicon (genotype 1b) in Huh-7.5 cells. The test can be described thus: HCV subgenomic replicon assay (Renilla luciferase). The class given is cell-based, hepatitis C virus. Particulars: for inhibition at 10 µM: Hepatitis C virus, Huh7.5, 10 μM, read-out: Replicon (% Inhibition @ 10 μM); for ability to decrease the amount of HCV RNA present in the cultures: 10 μM. The essentials:
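Huh-7.5 cells stably harbouring the genotype 1b HCV RLuc subgenomic replicon were treated with compound at 10 μM final (0.5% DMSO) for 72 h at 37 °C. Replication was assessed as Renilla luciferase activity in lysates relative to DMSO-treated cells.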
A general note: A replicon is a self-replicating genome or part of one, used to study replication in cells.

Where [3] appears, read: genotype 1b (con1), read-out: Target Potency MBHA (IC50 avg., μM) 1b (con1).
Setting [4] is: standard HCV helicase MBHA (Table 9), read-out: DNA Unwinding IC50.
Where [5] appears, read: MBHA, DNA unwinding, mean ± SD of three titrations, read-out: Helicase IC50.

Where two headings read alike, the source gives them in different places.

As a reminder, the IC50 is the concentration needed to halve the response being measured. The term inhibition denotes the relative decrease from the control value, in per cent.

T1 sequence (Q9WMX2 1192-1657): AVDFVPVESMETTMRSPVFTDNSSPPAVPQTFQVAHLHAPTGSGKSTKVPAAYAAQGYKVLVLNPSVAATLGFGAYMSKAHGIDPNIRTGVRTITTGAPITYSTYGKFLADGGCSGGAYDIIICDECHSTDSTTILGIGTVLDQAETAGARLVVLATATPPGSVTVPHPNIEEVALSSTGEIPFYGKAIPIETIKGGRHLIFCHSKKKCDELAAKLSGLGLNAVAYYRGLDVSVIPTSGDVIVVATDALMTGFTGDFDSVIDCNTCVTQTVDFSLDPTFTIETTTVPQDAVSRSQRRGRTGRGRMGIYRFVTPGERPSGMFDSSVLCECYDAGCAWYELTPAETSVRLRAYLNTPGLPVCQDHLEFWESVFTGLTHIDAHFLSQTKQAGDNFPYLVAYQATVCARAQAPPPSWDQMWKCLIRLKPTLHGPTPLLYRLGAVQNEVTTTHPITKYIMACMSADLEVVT

For the compound `Cc1ccc2nc(-c3ccc(NC(=O)c4ccc(NC(=S)Nc5ccccc5)cc4)cc3)sc2c1S(=O)(=O)O.N` [Compound 43], the IC50 worked out at 29 ± 6.9 µM in test [1] (setting [3]) and 29 ± 7 µM in test [1] (setting [4]). Further, the inhibition at 10 µM in test [2] was -13 ± 2%.
As for `Cc1ccc2nc(-c3ccc(NC(=O)c4ccc(NC(=O)c5ccc(C(F)(F)F)cc5)cc4)cc3)sc2c1S(=O)(=O)O.N` [Compound 44], the IC50 in test [1] (setting [3]) was found to be 10.4 ± 1.9 µM; in test [1] (setting [4]) it was 10 ± 2 µM. In addition, the inhibition at 10 µM in test [2] stood at 4 ± 8%.
The corresponding values for `Cc1ccc2nc(-c3ccc(NC(=O)c4ccc(NC(=O)Nc5ccccc5)cc4)cc3)sc2c1S(=O)(=O)O.N` [Compound 45] are 44 ± 12 µM, 44 ± 12 µM and -64 ± 90%.
Take `Cc1ccc2nc(-c3ccc(NC(=O)c4ccc(NC(=O)c5ccc(N)cc5)cc4)cc3)sc2c1S(=O)(=O)O.N` [Compound 46]: the IC50 in test [1] (setting [3]) is 30 ± 3.8 µM; in test [1] (setting [4]), 29 ± 4 µM. Moreover, in test [2], the inhibition at 10 µM was -42 ± 26%.
As to `Cc1ccc2nc(-c3ccc4nc(-c5ccc(NC(=O)Nc6ccc(C(F)(F)F)cc6)cc5)sc4c3)sc2c1S(=O)(=O)O.N` [Compound 47], the half-inhibitory concentration (IC50) in test [1] (setting [3]) is 5.1 ± 3.3 µM; in test [1] (setting [4]) it was 5 ± 3 µM. The inhibition at 10 µM in test [2] amounted to 7 ± 39%.
The corresponding values for `Cc1ccc2nc(-c3ccc4nc(-c5ccc(NC(=O)Nc6ccc(F)cc6)cc5)sc4c3)sc2c1S(=O)(=O)O.N` [Compound 48] are 7.8 ± 2.2 µM, 8 ± 2 µM and 17 ± 25%.
The like results for `Cc1ccc2nc(-c3ccc4nc(-c5ccc(NC(=O)c6cccc7ccccc67)cc5)sc4c3)sc2c1S(=O)(=O)O.N` [Compound 49] were, in that order, 4.5 ± 0.4 µM, 5 µM and -9 ± 8%.
The like results for `Cc1ccc2nc(-c3ccc4nc(-c5ccc(NC(=S)Nc6ccccc6)cc5)sc4c3)sc2c1S(=O)(=O)O.N` [Compound 50] were, in that order, 9.3 ± 3.8 µM, 9 ± 4 µM and 9 ± 9%.
As to `Cc1ccc2nc(-c3ccc(NC(=O)c4ccc(NC(=O)c5ccc(NC(=O)OCC6c7ccccc7-c7ccccc76)cc5)cc4)cc3)sc2c1S(=O)(=O)O.N` [Compound 51], the figures for the IC50 in test [1] (setting [3]) and in test [1] (setting [4]) were 2.5 ± 0.5 µM and 3 µM, respectively. The inhibition at 10 µM in test [2] is -14 ± 26%.
On to `Cc1ccc2nc(-c3ccc4nc(-c5ccc(NC(=O)Nc6ccccc6)cc5)sc4c3)sc2c1S(=O)(=O)O.N` [Compound 52], for which the results for the half-inhibitory concentration (IC50) in test [1] (setting [3]) and in test [1] (setting [4]) were 4.1 ± 1.3 µM and 4 ± 1 µM, respectively. Also, the inhibition at 10 µM in test [2] is -18 ± 56%.
The like results for `Cc1ccc2nc(-c3ccc4nc(-c5ccc(NCc6ccccc6)cc5)sc4c3)sc2c1S(=O)(=O)O` [Compound 53] were, in that order, 11 ± 1.6 µM, 11 ± 2 µM and -64 ± 25%.
With `Cc1ccc2nc(-c3ccc4nc(-c5ccc(NC(=O)Nc6ccc(Cl)cc6)cc5)sc4c3)sc2c1S(=O)(=O)O` [Compound 54], the IC50 in test [1] (setting [3]) came out at 3.6 ± 0.9 µM; in test [1] (setting [4]) it was 4 ± 1 µM. Besides, in test [2], the inhibition at 10 µM turned out to be 35 ± 28%.
With `COc1ccc(NC(=O)Nc2ccc(-c3nc4ccc(-c5nc6ccc(C)c(S(=O)(=O)O)c6s5)cc4s3)cc2)cc1` [Compound 55], the IC50 in test [1] (setting [3]) was found to be 4.8 ± 2 µM; in test [1] (setting [4]), 5 ± 2 µM. Also, in test [2], the inhibition at 10 µM came to 21 ± 10%.
For the compound `Cc1ccc2nc(-c3ccc4nc(-c5ccc6nc(-c7ccc(N)cc7)sc6c5)sc4c3)sc2c1S(=O)(=O)O` [Compound P3, 2″-(4-aminophenyl)-6-methyl-[2,6′:2′,6″-terbenzo[d]thiazole]-7-sulfonic acid], the half-maximal inhibitory concentration (IC50) in test [1] (setting [5]) stood at 0.9 ± 0.1 µM. Also, the “ability to decrease the amount of HCV RNA present in the cultures” value in test [2] is listed as “showed any ability to decrease the amount of HCV RNA present in the cultures”.
For `Cc1ccc2nc(-c3ccc4nc(-c5ccc6nc(-c7ccc8nc(-c9ccc(N)cc9)sc8c7)sc6c5)sc4c3)sc2c1S(=O)(=O)O` [Compound P4, 2′″-(4-aminophenyl)-6-methyl-[2,6′:2″,6′″-quaterbenzo[d]thiazole]-7-sulfonic acid], the half-inhibitory concentration (IC50) was determined as 2 ± 0.1 µM in test [1] (DNA-based MBHA, genotype 1b, read-out: DNA Helicase NS3h_1b IC50 (μM) ± SD) and 0.8 µM in test [1] (setting [5]). Besides, the “ability to decrease the amount of HCV RNA present in the cultures” value in test [2] is recorded as “showed any ability to decrease the amount of HCV RNA present in the cultures”.

Values taken from patent US9464064B2, “HCV helicase inhibitors and methods of use thereof” (University of Kansas, priority 2011, dated 2016).
